This is an account of results in article PMC9785921, “Evaluation of Chiral Organosulfur Compounds on Their Activity against the Malaria Parasite Plasmodium falciparum” (Tropical Medicine and Infectious Disease, 2022).

Data set [1] concerns P. falciparum NF54 gametocytes. In words: Gametocyte toxicity test. The format is cell-based, Plasmodium falciparum. To be noted: compound at IC50 concentration, 48 h treatment, then 7 d drug-free. As to the method:
(§1) Three P. falciparum strains were used for compound testing; a strain sensitive to chloroquine (CQ) 3D7, CQ-resistant strain Dd2 and P. falciparum gametocyte producing NF54 strain. The 3D7 and Dd2 strains were used to investigate the effect of the compounds on asexual blood stage replication. They were cultured in RPMI 1640/HEPES medium (Gibco, Thermo Scientific, Waltham, MA, USA) containing 10 µg/mL gentamicin (Gibco Thermo Scientific, Waltham, MA, USA,), 50 µg/mL hypoxanthine (Sigma-Aldrich, St. Louis, MO, USA), 0.5% v/v Albumax II (Gibco, Thermo Scientific, Waltham, MA, USA) and 5% hematocrit. Cultures were maintained at 37 °C using a gas mixture containing 5% CO2, 5% O2 and 90% N2. […] To obtain highly synchronized cultures, parasite cultures consisting mainly of ring stages were centrifuged, the pellet was resuspended in 10 mL of 5% w/v sorbitol/ddH20 and incubated for 10 min at room temperature. After washing the cells with RPMI to remove residual sorbitol, they were again cultivated, as described above. Erythrocyte concentrate and serum samples were obtained from the Department of Transfusion Medicine, University Hospital Aachen, Germany. The serum samples were mixed and pooled and donors were kept anonymous. The work with blood components from humans was approved by the Ethics commission of the RWTH University Hospital (EK 007/13).
P. falciparum NF54 parasites were cultured at high parasitemia to induce gametocyte formation. Once stage II gametocytes appeared, 1 mL of culture was aliquoted in triplicate in a 24-well plate with compounds at the respective IC50 and IC90 concentrations that was determined from Malstat assay. The gametocytes were again cultivated for 9 d with the daily replacement of medium. For the first 48 h of cultivation, the gametocytes were treated with test compounds, and subsequently compound free medium was used. On day 9, blood smears were prepared and stained with Giemsa and the gametocytemia was determined by counting the numbers of gametocytes stages IV and V in a total number of 1000 erythrocytes.
Figure 3 Effect of organosulfur compounds on gametocyte development. Cultures rich in stage II gametocyte were incubated with compounds at IC50 and IC90 concentrations for 2 d, and again cultivated for another 7 d with daily replacement of medium. The numbers of stage IV and V gametocytes were determined from Giemsa smears and normalized to 0.5% v/v DMSO treatment which served as negative control (set to 100%). Epoxomicin (Epoxo) at 60 nM served as positive control.

The test system of data set [2] is non-infected erythrocytes. In words: Hemolytic assay. The format is cell-based, human. To be noted: IC50 and IC90 concentrations, 48 h, 37 °C, compared with 0.5% v/v DMSO. As to the method: Since the malaria parasite replicates in the red blood cell, we determined if the compounds have an effect on non-infected erythrocytes using hemolytic assays. To this end, 1 mL of washed uninfected erythrocytes at 5% hematocrit in regular medium was plated in triplicate in a 96-well plate (200 µL/well) in the presence of compounds at IC50 and IC90 concentrations. Erythrocytes treated with 0.15% w/v saponin were used as lysis control and 0.5% v/v DMSO was used as the negative control. Following 48 h of incubation at 37 °C, the plate was centrifuged at 500× g for 2 min and 100 µL of the supernatant was transferred to another plate and the absorbance was measured at 550 nm with a spectrophotometer.
(§2) Figure 4 Hemolytic and cytotoxic effect of compounds. (a) Hemolytic effect of compounds. […] The absorbance of free hemoglobin was measured at OD550 nm in the supernatant and normalized to 0.15% w/v saponin (set to 100%), which served as positive control in the experiments. 0.5% v/v DMSO was used as negative control. (b) Cytotoxicity effect of compounds on Hela cells. The cells were plated in 96-well microtiter plates and cultured overnight at 37 °C. The following day, the old medium was removed and 100 µL of fresh medium containing serially diluted compounds in corresponding wells at final concentrations ranging from 100 µM to 0.8 µM was added and the culture was incubated for 72 h. After incubation, the medium was replaced by 100 µL fresh drug-free medium and 20 µL MTT (5 mg/mL) was added in each well and incubated for 3 h at 37 °C. After 3 h, the MTT preparation was then removed from each well and 100 µL solubilization solution was added. Plates were then placed on a rotator at about 500 rpm at RT until the formazan precipitate was completely resuspended and the OD was measured at 450 nm. The data are representative of three independent experiments.

The test system of the next data set is P. falciparum 3D7 strain. In words: Malstat assay, asexual blood stages, CQ-sensitive strain 3D7. It counts as cell-based. To be noted: Plasmodium falciparum, 3D7. As to the method: as §1
(§3) The antiplasmodial effect of the compounds on P. falciparum asexual blood stage development was carried out using the Malstat assay, as described previously. Compounds dissolved in dimethyl sulfoxide (DMSO) were added to 1% ring stage P. falciparum 3D7 and Dd2 cultures (200 µL/well) in a 96-well plate in triplicate at final concentrations ranging from 100 µM to 0.78 µM. […] CQ at concentrations ranging from 500 nM to 4 nM was used as an internal control in the experiments, while parasites treated with 0.5% v/v DMSO served as the negative control. The parasites were cultured with the compounds for 72 h at 37 °C in the presence of the following gas combination: 5% O2, 5% CO2, and 90% N2. Afterwards, 20 µL of the incubated culture was removed and 100 µL of Malstat reagent (0.1% v/v Triton X-100, 1 g of L-lactate, 0.33 g Tris and 33 mg of 3-acetylpyridine adenine dinucleotide in 100 mL of distilled water, pH 9.0) was added in a new 96-well microtiter plate. Next, 20 µL mixture of NBT/Diaphorase (1:1; 1 mg/mL stock each) was added to the Malstat reaction and the parasite lactate dehydrogenase activity was then quantified by measuring the optical densities at 630 nm. IC50 values were then determined from variable-slope sigmoidal dose-response graphs using the GraphPad Prism program version 5 (GraphPad Software Inc., La Jolla, San Diego, CA, USA).

Data set [3] can be described thus: MTT cytotoxicity assay, Hela cells. It counts as cell-based. To be noted: human, Hela cells (human cervical cancer cell line). As to the method:
The MTT [3-(4,5-dimethylthiazol-2-yl)-2,5-diphenyltetrazolium bromide] assay was performed using the human cervical cancer cell (Hela) line and the hematologic malignancy human erythroleukemia (HEL) cell line to determine if the compounds were toxic (loss of viability) against human cells. MTT is taken up by viable cells and converted by mitochondrial dehydrogenases to a violet formazan product that cannot diffuse through cell membranes, and therefore crystallizes in viable cells. The adherent Hela cells were plated in 96-well microtiter plates and cultured at 37 °C overnight. Compounds were added to the cultures in different serial concentrations in triplicate the next day, and the cells were incubated for 72 h. DMSO was used as the negative control at a final concentration of 0.5% v/v, and a concentration of 15% v/v DMSO which is toxic was added as the positive control. After 72 h of drug treatment, medium-containing drug was replaced with 100 µL fresh drug-free medium. Then, 20 µL MTT (5 mg/mL) was added to each well and incubated for 3 h at 37 °C. The medium was subsequently removed and 100 µL solubilization solution (5% w/v SDS, 0.1 M HCl in 100% vol. DMSO) was added and incubated for 30 min under rotation at room temperature to solubilize the formazan crystals.
For both cell lines, the optical density (OD) of the solution was measured at 550 nm. The OD-values of cultures treated with compounds were normalized to the OD-values of 0.5% v/v DMSO control (set to 100% viability for Hela or 1 for HEL cell line). IC50 values were calculated from MTT assays using Graphpad Prism (V9).
as §2
A general note: Tetrazolium dyes change colour on reduction, which living cells bring about.

In a further data set the test system is P. falciparum Dd2 strain. In words: Malstat assay, asexual blood stages, CQ-resistant strain Dd2. It counts as cell-based. To be noted: Plasmodium falciparum, DD2; ring stage parasites, 72 h, Malstat; read-out: IC50 (µM) CQ-Resistant Strain Dd2. As to the method: as §1, §3

As a reminder, the IC50 is the concentration at which inhibition is half-maximal. One may read the IC90 as the point of the concentration-response curve where the effect stands at 90%. One may read the viability as a per cent measure of how many cells are alive, often set against a control. A high value points to less harm to the cells. As for `CCOC(=O)C1=C(c2ccc(C)cc2)N=S(=O)(N2CCCCCC2)c2ccc(C)cc21` (stereo not shown) [Compound 17], the “reduction of mature gametocyte numbers” value in data set [1] is on record as “about 50%”. Besides, the hemolytic effect result in data set [2] was “no hemolytic effect”. The IC50 turned out to be 2.6 ± 0.7 µM in the data set on P. falciparum 3D7 strain (ring stage parasites, 72 h, Malstat (plasmodial LDH), read-out: IC50 (µM) CQ-Sensitive Strain 3D7) and 4 ± 0.28 µM with P. falciparum Dd2 strain. Further, the IC90 in the data set on P. falciparum 3D7 strain (90% inhibitory concentration estimated from the IC50) is 23.4 µM. Also, the viability at 72 h, 50 µM in data set [3] (50 µM) was > 60%. Besides, in data set [3] (about 25 µM), the viability at 72 h was > 90%.
